Test results published in ChEMBL document CHEMBL5380833 (J Med Chem, 2023).
Calls of active or inactive are those of the source. No cut-off for these calls is given here.

Columns and labels:
[1] = biological target: T1, Protein cereblon/Tyrosine-protein kinase ITK/TSK (Homo sapiens, UniProt Q08881+Q96SW2); test: PROTAC activity at CRBN/ITK in human Jurkat cells assessed as induction of ITK degradation by Western blot analysis; format: cell-based; details: read-out: EC50
Target sequence in this assay (Q08881 whole entry): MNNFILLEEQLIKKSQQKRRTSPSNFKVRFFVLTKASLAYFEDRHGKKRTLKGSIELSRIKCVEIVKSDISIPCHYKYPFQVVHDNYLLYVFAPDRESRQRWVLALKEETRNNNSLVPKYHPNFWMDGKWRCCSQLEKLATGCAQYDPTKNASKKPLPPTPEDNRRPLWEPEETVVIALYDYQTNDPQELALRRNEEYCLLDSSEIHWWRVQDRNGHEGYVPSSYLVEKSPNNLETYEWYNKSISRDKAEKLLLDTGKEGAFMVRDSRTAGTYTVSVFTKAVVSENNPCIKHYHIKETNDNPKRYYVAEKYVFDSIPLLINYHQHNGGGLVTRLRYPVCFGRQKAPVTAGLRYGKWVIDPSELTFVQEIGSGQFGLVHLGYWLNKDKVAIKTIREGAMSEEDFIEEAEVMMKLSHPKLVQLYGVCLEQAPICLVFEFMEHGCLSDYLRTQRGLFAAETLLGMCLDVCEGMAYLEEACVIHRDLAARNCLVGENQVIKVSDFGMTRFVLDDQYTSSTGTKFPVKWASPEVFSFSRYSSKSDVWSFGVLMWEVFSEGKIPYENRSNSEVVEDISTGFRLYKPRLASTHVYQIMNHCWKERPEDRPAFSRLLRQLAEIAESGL
Target sequence in this assay (Q96SW2 whole entry): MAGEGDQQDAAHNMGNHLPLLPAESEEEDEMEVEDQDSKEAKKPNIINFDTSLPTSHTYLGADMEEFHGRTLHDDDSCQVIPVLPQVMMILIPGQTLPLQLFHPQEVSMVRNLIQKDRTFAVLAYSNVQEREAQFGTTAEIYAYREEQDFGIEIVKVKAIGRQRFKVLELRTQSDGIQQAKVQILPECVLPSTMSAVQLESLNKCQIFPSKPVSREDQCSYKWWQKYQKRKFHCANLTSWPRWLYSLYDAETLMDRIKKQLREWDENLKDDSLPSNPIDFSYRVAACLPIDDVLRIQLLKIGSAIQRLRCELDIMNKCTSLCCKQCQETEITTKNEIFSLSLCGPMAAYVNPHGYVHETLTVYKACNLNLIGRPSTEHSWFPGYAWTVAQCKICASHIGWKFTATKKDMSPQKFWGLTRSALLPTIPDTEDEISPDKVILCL

[2] = biological target: T1, Protein cereblon/Tyrosine-protein kinase ITK/TSK; test: PROTAC activity at CRBN/ITK in human Jurkat cells assessed as maximum degradation at 0.01 to 10 uM by Western blot analysis relative to control; format: cell-based; details: dose 0.01-10 µM
Target sequence in this assay (Q08881 whole entry, looked up): as the sequence (Q08881 whole entry) above
Target sequence in this assay (Q96SW2 whole entry, looked up): as the sequence (Q96SW2 whole entry) above

Interleukin-2 = Interleukin-2 (Homo sapiens, UniProt P60568); test: Inhibition of IL-2 in human Jurkat cells pretreated with compound for 4 hrs followed by anti-CD3/CD28 stimulation by ELISA analysis; format: cell-based
Chain of Interleukin-2 (P60568 whole entry): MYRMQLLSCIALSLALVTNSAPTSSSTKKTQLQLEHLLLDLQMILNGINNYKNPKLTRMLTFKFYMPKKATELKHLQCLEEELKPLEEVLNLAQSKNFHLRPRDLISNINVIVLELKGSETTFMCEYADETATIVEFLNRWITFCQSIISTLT

[3] = AUC (0 to t) in Balb/c mouse at 5 mg/kg, iv measured upto 24 hrs by LC-MS/MS analysis; format: ADME, organism-based; design: dose 5 mg/kg, time < 24 hrs, route iv; details: in vivo
[4] = AUC (0 to t) in Balb/c mouse at 10 mg/kg, ip measured upto 24 hrs by LC-MS/MS analysis; format: ADME, organism-based; design: time < 24 hrs, dose 10 mg/kg, route ip; details: in vivo
[5] = AUC (0 to infinity) in Balb/c mouse at 5 mg/kg, iv measured upto 24 hrs by LC-MS/MS analysis; format: ADME, organism-based; design: time < 24 hrs, dose 5 mg/kg, route iv; details: in vivo
[6] = AUC (0 to infinity) in Balb/c mouse at 10 mg/kg, ip measured upto 24 hrs by LC-MS/MS analysis; format: ADME, organism-based; design: dose 10 mg/kg, time < 24 hrs, route ip; details: in vivo
[7] = Half life in Balb/c mouse at 5 mg/kg, iv measured upto 24 hrs by LC-MS/MS analysis; format: ADME, organism-based; details: in vivo
[8] = Half life in Balb/c mouse at 10 mg/kg, ip measured upto 24 hrs by LC-MS/MS analysis; format: ADME, organism-based; details: in vivo
[9] = Volume of distribution at steady state in Balb/c mouse at 5 mg/kg, iv measured upto 24 hrs by LC-MS/MS analysis; format: ADME, organism-based; details: in vivo, read-out: Vdss
[10] = Volume of distribution at steady state in Balb/c mouse at 10 mg/kg, ip measured upto 24 hrs by LC-MS/MS analysis; format: ADME, organism-based; details: in vivo
[11] = Clearance in Balb/c mouse at 5 mg/kg, iv measured upto 24 hrs by LC-MS/MS analysis; format: ADME, organism-based; details: in vivo
[12] = Clearance in Balb/c mouse at 10 mg/kg, ip measured upto 24 hrs by LC-MS/MS analysis; format: ADME, organism-based; details: in vivo
[13] = Cmax in Balb/c mouse at 5 mg/kg, iv measured upto 24 hrs by LC-MS/MS analysis; format: ADME, organism-based; design: time < 24 hrs, dose 5 mg/kg, route iv; details: in vivo
[14] = Cmax in Balb/c mouse at 10 mg/kg, ip measured upto 24 hrs by LC-MS/MS analysis; format: ADME, organism-based; design: dose 10 mg/kg, time < 24 hrs, route ip; details: in vivo
[15] = MRT last in Balb/c mouse at 5 mg/kg, iv measured upto 24 hrs by LC-MS/MS analysis; format: ADME, organism-based; details: Balb/c, in vivo
[16] = MRT last in Balb/c mouse at 10 mg/kg, ip measured upto 24 hrs by LC-MS/MS analysis; format: ADME, organism-based; details: in vivo
[17] = Bioavailability in Balb/c mouse at 10 mg/kg, ip measured upto 24 hrs by LC-MS/MS analysis; format: ADME, organism-based; details: in vivo
[18] = Toxicity in Balb/c mouse assessed as drug tolerance at 5 mg/kg, iv measured upto 24 hrs by LC-MS/MS analysis; format: organism-based; details: in vivo
[19] = Toxicity in Balb/c mouse assessed as drug tolerance at 10 mg/kg, ip measured upto 24 hrs by LC-MS/MS analysis; format: organism-based; details: in vivo
[20] = Toxicity in Balb/c mouse assessed as side effects at 5 mg/kg, iv measured upto 24 hrs by LC-MS/MS analysis; format: organism-based; details: in vivo
[21] = Toxicity in Balb/c mouse assessed as side effects at 10 mg/kg, ip measured upto 24 hrs by LC-MS/MS analysis; format: organism-based; details: in vivo
[22] = biological target: T1, Protein cereblon/Tyrosine-protein kinase ITK/TSK; test: PROTAC activity at CRBN/ITK in human Jurkat cells assessed as downregulation of ITK protein by measuring fold change at 100 nM measured after 8 hrs; format: cell-based
Target sequence in this assay (Q08881 whole entry, looked up): as the sequence (Q08881 whole entry) above
Target sequence in this assay (Q96SW2 whole entry, looked up): as the sequence (Q96SW2 whole entry) above

Jurkat [23] = test: Effect on IKZF1 expression in human Jurkat cells at 100 nM measured after 8 hrs by proteomics analysis; format: functional, cell-based
Jurkat [24] = test: Effect on IKZF3 expression in human Jurkat cells at 100 nM measured after 8 hrs by proteomics analysis; format: functional, cell-based
Jurkat [25] = test: Effect on CK1alpha expression in human Jurkat cells at 100 nM measured after 8 hrs by proteomics analysis; format: functional, cell-based
Jurkat [26] = test: Effect on GSPT1 expression in human Jurkat cells at 100 nM measured after 8 hrs by proteomics analysis; format: functional, cell-based
[27] = biological target: T2, Protein cereblon/Tyrosine-protein kinase ITK/TSK (Mus musculus) (UniProt Q8C7D2+Q03526); test: In vivo PROTAC activity at CRBN/ITK xenografted in Balb/c mouse peripheral blood assessed as prolongation of ITK degradation at 20 mg/kg, ip measured for 2 to 16 hrs by Western blot analysis; format: functional, organism-based; details: time 2-16 hrs
[28] = biological target: T2, Protein cereblon/Tyrosine-protein kinase ITK/TSK (Mus musculus); test: In vivo PROTAC activity at CRBN/ITK xenografted in Balb/c mouse spleen assessed as prolongation of ITK degradation at 20 mg/kg, ip measured for 2 to 16 hrs by Western blot analysis; format: functional, organism-based; details: time 2-16 hrs
[29] = biological target: T2, Protein cereblon/Tyrosine-protein kinase ITK/TSK (Mus musculus); test: In vivo PROTAC activity at CRBN/ITK xenografted in Balb/c mouse assessed as reduction in cytokine IL-2 production at 25 mg/kg, ip preincubated for 6 hrs followed by abti-CD3 stimulation and measured after 1.5 hrs by ELISA method relative to control; format: functional, organism-based; design: scale not given: the % may be the effect or the level left; details: time 7.5 hrs
[30] = biological target: T2, Protein cereblon/Tyrosine-protein kinase ITK/TSK (Mus musculus); test: (§1) PROTAC activity at CRBN/ITK in Balc/c mouse Primary splenic cell assessed as ITK degradation by immunoblotting analysis; format: cell-based; details: dose 0.32-5000 nM
[31] = biological target: T3, Protein cereblon/Tyrosine-protein kinase ITK/TSK (Mus musculus, UniProt Q8C7D2+Q03526); test: as §1; format: cell-based
T3 sequence (Q8C7D2 whole entry): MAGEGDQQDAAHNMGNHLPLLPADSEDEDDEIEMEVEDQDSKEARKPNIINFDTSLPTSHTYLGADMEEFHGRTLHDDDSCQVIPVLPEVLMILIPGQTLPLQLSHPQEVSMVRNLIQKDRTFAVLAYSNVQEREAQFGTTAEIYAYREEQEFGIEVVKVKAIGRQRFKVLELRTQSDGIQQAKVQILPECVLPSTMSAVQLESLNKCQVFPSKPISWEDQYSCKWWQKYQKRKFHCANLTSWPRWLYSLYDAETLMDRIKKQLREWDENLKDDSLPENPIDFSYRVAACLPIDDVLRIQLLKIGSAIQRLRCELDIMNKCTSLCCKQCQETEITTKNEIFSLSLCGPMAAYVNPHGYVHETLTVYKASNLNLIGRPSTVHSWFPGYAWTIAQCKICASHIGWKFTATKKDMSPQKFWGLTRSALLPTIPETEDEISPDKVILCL
T3 sequence (Q03526 whole entry): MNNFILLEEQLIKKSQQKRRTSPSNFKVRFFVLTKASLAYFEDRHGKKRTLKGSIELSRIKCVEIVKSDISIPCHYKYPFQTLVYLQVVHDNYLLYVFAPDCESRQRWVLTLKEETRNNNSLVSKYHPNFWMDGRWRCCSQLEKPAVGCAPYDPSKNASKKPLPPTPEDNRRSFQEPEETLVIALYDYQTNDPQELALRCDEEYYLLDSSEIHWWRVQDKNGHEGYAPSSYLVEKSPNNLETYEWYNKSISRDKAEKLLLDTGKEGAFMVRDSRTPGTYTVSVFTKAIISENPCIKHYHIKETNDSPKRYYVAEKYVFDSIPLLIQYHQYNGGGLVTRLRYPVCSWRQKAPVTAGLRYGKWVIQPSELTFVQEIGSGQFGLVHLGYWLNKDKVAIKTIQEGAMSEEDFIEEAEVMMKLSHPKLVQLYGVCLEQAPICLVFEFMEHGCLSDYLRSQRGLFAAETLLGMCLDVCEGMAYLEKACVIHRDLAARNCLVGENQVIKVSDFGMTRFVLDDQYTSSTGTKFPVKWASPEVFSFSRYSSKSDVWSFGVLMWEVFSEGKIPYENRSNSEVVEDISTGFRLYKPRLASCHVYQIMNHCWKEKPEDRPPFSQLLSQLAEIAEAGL

[32] = biological target: T2, Protein cereblon/Tyrosine-protein kinase ITK/TSK (Mus musculus); test: PROTAC activity at CRBN/ITK in Balc/c mouse Primary splenic cell assessed as maximum degradation at 0.32 to 5000 nM by immunoblotting analysis relative to control; format: cell-based; details: dose 0.32-5000 nM

CC1(C)CCc2c(C(=O)Nc3cnn([C@@H](CCN4CCN(CCC5CCN(c6ccc7c(c6)C(=O)N(C6CCC(=O)NC6=O)C7=O)CC5)CC4)c4ccccc4)c3)n[nH]c2C1.O=C(O)C(F)(F)F (stereo partly drawn)
EC50 [1]: 3.6 nM | Emax [2]: 95% | EC50 (Interleukin-2): 35.2 nM | AUC(0-t) at 24 h [3]: 15100 ng·h/mL | AUC(0-t) at 24 h [4]: 25900 ng·h/mL | AUC(0-inf) [5]: 15400 ng·h/mL | AUC(0-inf) [6]: 27300 ng·h/mL | half-life [7]: 4.39 h | half-life [8]: 5.75 h | Vd [9]: 2.06 L/kg | Vdss [10]: 3.06 L/kg | clearance [11]: 5.4 mL/min/kg | CL/F [12]: 6.1 mL/min/kg | Cmax [13]: 4910 ng/mL | Cmax [14]: 3420 ng/mL | MRT last at 24 h [15]: 4.42 h | MRT last at 24 h [16]: 5.84 h | bioavailability [17]: 88.4% | Activity [18]: Non-Toxic | Activity [19]: Non-Toxic | Activity [20]: Non-Toxic | Activity [21]: Non-Toxic | fold change (FC) [22]: 0.37 | Activity (Jurkat [23]): inactive | Activity (Jurkat [24]): inactive | Activity (Jurkat [25]): inactive | Activity (Jurkat [26]): inactive | Activity [27]: Active | Activity [28]: Active | Activity [29]: 70% | Activity [30]: Dose-Dependent Effect | DC50 [31]: 2.1 nM | Emax [32]: > 99%
